The numbers were not newly measured in patent US20180267043A1, “USE OF BIOMARKERS FOR PREDICTING CLINICAL SENSITIVITY TO CANCER TREATMENT” (CELGENE CORPORATION, priority 2014, published 2018), which cites them from elsewhere.

Data set [1] has as its target T1, CRBN (Homo sapiens, UniProt Q96SW2). As to conditions: Ito et al., Science 2010; cited from earlier work.
Target sequence in this assay (Q96SW2 whole entry): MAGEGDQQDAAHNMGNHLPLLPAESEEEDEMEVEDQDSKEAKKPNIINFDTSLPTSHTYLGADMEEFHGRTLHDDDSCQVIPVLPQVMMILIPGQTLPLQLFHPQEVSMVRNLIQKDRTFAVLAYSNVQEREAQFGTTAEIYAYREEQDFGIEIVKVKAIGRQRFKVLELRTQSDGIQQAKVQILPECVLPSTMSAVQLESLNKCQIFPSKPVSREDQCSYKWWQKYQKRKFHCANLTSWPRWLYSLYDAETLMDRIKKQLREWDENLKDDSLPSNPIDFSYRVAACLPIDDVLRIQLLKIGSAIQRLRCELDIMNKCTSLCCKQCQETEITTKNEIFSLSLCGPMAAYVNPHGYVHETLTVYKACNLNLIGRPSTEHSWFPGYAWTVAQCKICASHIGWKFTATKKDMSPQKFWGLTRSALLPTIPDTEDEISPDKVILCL
Data set [2] deals with CRBN (Homo sapiens, UniProt Q96SW2, W386A/Y384A). The note with it: double mutant; cited from earlier work.
The test system of data set [3] is CRBN. The note with it: individual point mutants; cited from earlier work.
Data set [4] concerns the target T1, CRBN. As to conditions: in vitro; cited from earlier work.
Target sequence in this assay (Q96SW2 whole entry): as above
Target sequence in this assay (Q16531 whole entry partner): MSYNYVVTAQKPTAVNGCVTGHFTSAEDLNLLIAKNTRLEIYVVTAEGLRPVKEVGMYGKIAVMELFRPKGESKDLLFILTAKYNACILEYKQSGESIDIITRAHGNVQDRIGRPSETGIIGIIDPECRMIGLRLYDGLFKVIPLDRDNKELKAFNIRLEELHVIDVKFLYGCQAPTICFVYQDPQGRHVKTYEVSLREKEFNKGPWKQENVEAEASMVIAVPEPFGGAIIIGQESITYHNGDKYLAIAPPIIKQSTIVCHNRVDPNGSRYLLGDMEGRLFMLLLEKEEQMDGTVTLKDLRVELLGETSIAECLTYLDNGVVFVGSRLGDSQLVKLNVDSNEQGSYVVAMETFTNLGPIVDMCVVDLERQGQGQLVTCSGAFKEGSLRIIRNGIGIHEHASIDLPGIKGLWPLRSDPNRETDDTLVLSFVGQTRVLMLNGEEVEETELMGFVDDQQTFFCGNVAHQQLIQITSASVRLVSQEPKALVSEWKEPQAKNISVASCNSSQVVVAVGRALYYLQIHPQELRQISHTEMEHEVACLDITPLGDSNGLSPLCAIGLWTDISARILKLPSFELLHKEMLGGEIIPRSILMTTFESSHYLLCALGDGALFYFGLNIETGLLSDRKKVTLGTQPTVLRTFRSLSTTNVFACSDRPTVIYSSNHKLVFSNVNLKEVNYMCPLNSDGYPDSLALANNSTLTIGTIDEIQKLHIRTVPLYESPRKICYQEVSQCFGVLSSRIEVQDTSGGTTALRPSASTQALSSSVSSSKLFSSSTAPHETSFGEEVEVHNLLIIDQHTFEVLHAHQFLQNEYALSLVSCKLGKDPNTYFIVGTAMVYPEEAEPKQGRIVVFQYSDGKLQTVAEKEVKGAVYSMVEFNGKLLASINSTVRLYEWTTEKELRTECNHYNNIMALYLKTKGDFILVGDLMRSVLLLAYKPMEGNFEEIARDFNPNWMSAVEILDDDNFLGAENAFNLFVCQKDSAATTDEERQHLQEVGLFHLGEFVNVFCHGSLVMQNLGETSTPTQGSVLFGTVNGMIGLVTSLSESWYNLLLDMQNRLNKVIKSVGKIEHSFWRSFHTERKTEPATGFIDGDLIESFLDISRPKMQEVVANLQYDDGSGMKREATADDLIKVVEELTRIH
Target sequence in this assay (Q13619 whole entry partner): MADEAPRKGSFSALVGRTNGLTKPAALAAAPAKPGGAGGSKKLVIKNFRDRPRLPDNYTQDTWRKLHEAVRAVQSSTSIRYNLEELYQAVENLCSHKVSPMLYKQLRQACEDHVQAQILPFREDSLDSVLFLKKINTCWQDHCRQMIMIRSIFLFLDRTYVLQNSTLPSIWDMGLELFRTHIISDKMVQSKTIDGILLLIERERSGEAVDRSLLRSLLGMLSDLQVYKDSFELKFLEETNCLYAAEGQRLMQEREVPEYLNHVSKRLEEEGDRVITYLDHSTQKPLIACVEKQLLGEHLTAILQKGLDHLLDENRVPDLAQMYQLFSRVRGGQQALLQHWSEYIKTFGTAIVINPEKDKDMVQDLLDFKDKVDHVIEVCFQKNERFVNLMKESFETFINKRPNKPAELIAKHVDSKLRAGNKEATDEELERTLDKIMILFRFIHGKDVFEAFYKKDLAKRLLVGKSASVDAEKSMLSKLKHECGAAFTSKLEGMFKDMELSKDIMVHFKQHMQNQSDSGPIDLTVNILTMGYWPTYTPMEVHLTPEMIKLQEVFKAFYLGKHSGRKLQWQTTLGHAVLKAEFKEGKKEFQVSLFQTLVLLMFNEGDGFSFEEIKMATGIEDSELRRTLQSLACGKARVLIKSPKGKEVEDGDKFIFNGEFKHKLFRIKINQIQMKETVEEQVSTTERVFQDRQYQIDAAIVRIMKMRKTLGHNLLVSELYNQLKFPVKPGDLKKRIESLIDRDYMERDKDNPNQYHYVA
Target sequence in this assay (P62877 whole entry partner): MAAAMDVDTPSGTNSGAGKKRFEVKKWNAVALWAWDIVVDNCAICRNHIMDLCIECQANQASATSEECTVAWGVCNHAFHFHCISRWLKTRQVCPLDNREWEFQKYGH

Sequence of CRBN (Homo sapiens, UniProt Q96SW2, W386A/Y384A) (Q96SW2 whole entry Y384A/W386A): as the sequence (Q96SW2 whole entry) above, with Y384A, W386A counted along it

For `O=C1CCC(N2C(=O)c3ccccc3C2=O)C(=O)N1` (stereo not shown) [thalidomide], at CRBN [1], the “Binding to CRBN” value is given as “binds to thalidomide”. Besides, the “Binding to CRBN double mutant (Y384A, W386A)” value at CRBN [2] is “lowest thalidomide-binding activity”. Also, the “Binding to CRBN point mutants Y384A and W386A” value in the data set with CRBN [3] is given as “both defective for thalidomide binding”. Also, on CRBN [4], the “Auto-ubiquitination of CRBN” value is “inhibit auto-ubiquitination of CRBN in vitro”.
